{"source": "patent US9381193B2", "about": "“Contraceptive methods and compositions” (WASHINGTON UNIVERSITY, priority 2011, dated 2016)", "key": {"ESC-T cells [1]": {"system": "ESC-T cells", "assay": "In vitro decidualization of immortalized human ESC-T cells (decidualization marker mRNA, morphology)", "assay_type": "cell-based", "description": "Decidualization in human cells was monitored by measuring the mRNA expression of two decidualization markers, PRL and IGFBP1.\nThis NADP+ analog inhibits two enzymes in the PPP, G6PD and 6GPDH, which utilize NADP+ and convert it into NADPH.\nTwo major results of the PPP are the production of ribose 5-phosphate and regeneration of NADPH. Production of ribose 5-phosphate is a central component in the de novo synthesis of ribonucleosides (RNs) and deoxyribonucleosides (DRNs). […] To address this question, ESC-T cultures were used and the differentiation media was supplemented with RNs and DRNs during treatment with PPP inhibitors.\n(§1) Endometrial tissue was obtained from human uteri after hysterectomy conducted for benign disease or from endometrial biopsies. Informed consent was obtained from each patient before surgery and protocols were approved by the Human Research Protection Office of Washington University (HRPO#07-0949). Tissues were placed in HBSS and transported to the laboratory. hESCs were isolated and cultured as previously described. In vitro decidualization was performed as previously described with several changes. Cells were seeded in 6-well plates at 2×10^5 cells/well in DMEM:F12 without phenol red, supplemented with 2% heat-inactivated charcoal dextran-stripped calf serum (HyClone) and 50 μg/ml penicillin/streptomycin (Cambrex Bio Science). Cells were treated with 1 μM medroxyprogesterone-17-acetate (MPA) (Sigma) and 0.5 mM N^6, 2′-O-Dibutyryladenosine 3′,5′-cyclic monophosphate sodium salt (db-cAMP) (Sigma). Control samples received 0.1% ethanol vehicle control.\nHuman immortalized ESC (ESC telomerase immortalized, ESC-T), were decidualized in vitro in the presence of 0, 2.5 or 5 mM GlcN for 9 days."}, "murine ESCs": {"system": "murine ESCs", "assay": "In vitro decidualization of primary murine ESCs (Prp mRNA)", "assay_type": "cell-based, mouse", "settings": "3 days in vitro culture", "description": "(§2) In order to confirm that this is not a side effect of ESC immortalization with telomerase overexpression in this human cell line, the effect of DHEA on decidualization of primary ESC cultures from mouse and human uteri was also investigated. Murine ESCs were isolated from the gravid uterus at 4 days post coitus and cultured in vitro for 3 days to induce decidualization as described in the Methods. […] The human primary ESCs were isolated from uteri following hysterectomy for benign disease as outlined in the Methods and cultured in decidualization media for 9 days.\nFor in vitro decidualization of ESCs, female mice were sacrificed at 4dpc. Pregnancy was confirmed by flushing dissected uterine horns and ostia with HBSS and observing for presence of blastocysts. Uteri confirmed for pregnancy were cut into 1 mm^3 pieces and incubated in Dulbecco's modified Eagle's Medium:F12 medium (DMEM:F12) without phenol red supplemented with 2 g/liter Collagenase Type I (Gibco) for 60-90 min at 37° C. Tissues were vortexed every 15 min during incubation. Following incubation, the solution was passed through a 40 μm sieve (BD Falcon) and centrifuged at 1100 rpm for 5 min. […]"}, "human primary ESCs": {"system": "human primary ESCs", "assay": "In vitro decidualization of human primary ESCs (decidualization marker mRNA)", "assay_type": "cell-based", "description": "as §2\nControl samples received 0.1% ethanol vehicle control."}, "hESC-Ts": {"system": "hESC-Ts", "assay": "Radiolabeled glucose flux (1-14C, 6-14C, 5-3H-glucose) in hESC-Ts", "assay_type": "cell-based, human", "experimental": "For these experiments, hESCs immortalized via overexpression of telomerase (hESC-Ts) were used. […] The response of these cells to PPP inhibitors was also tested in order to confirm their similar dependence on the pathway for differentiation. In order to determine glucose flux through the various metabolic pathways in ESCs the metabolic fates of 1-^14C—, 6-^14C—, and 5-^3H-glucose was followed. hESC-Ts were incubated for 3 h with one of the radiolabled glucoses and production of ^14CO2 or ^3H2O was compared between the four treatment groups, control, decidualized, and decidualized with 2 μM or 5 μM 6-AN (FIG. 6). […] This was an indication that the flux through the TCA cycle or PPP was decreased in the inhibitor-treated ESCs. […] Therefore, inhibiting G6PD with 6-AN has no effect on TCA flux, but directly lowers the metabolism of glucose through PPP. The ratio of 1-C:6-C, which summarizes the relative preference of the PPP, can then be seen as decreasing in the presence of the inhibitor 6-AN.\nThis indicates an increase in the amount of glucose entering glycolysis without continuing into the TCA cycle, possibly being converted into lactate."}, "ESC-T cells [2]": {"system": "ESC-T cells", "assay": "EdU incorporation proliferation assay", "assay_type": "cell-based, human", "description": "Other groups have shown that DHEA has anti-proliferative effects in a number of cell-lines and tissues. Thus, it was hypothesized that perhaps the PPP inhibitors prevent the proliferation of ESC-Ts and that this is an additional effect, independent of their role in decidualization inhibition. In a human uterus the stromal cells go through a cyclical oscillation between proliferation and differentiation, determined by the hormonal milieu. ESC-Ts in vitro remain in the proliferative state until they are exposed to differentiation media, which causes the cells to halt cell division and enter differentiation. Proliferation of ESC-T cells were monitored by EdU incorporation in vitro, which indicates entry into the S-phase of the cell cycle, in the absence of the differentiation hormones.\nFollowing 60 hr of the treatment indicated in the experiment, EdU was added to the culture medium at a concentration of […]. Cells were harvested and stained using the Click-iT EdU Flow Cytometry Kit (Invitrogen). Quantitative data were collected using a BD FACSCalibur flow cytometer (Becton Dickinson, San Jose, Calif.) and analyzed with FlowJo software (TreeSTar, Inc., Ashland, Oreg.). For confocal microscopy, the cells were stained on coverslips using the same protocol. Nuclei were counterstained with TOPRO-iodide (Molecular probes) at a 1:500 dilution. Cells were mounted on slides using Vectashield (Vector Labs) and visualized using a Nikon C1 microscope."}, "ICR female mice [3]": {"system": "ICR female mice", "assay": "Intrauterine DHEA or 6-AN pellet and pregnancy outcome", "assay_type": "in vivo, mouse", "experimental": "ICR female mice had either placebo (n=26), DHEA (1.5 mg/60 days)(n=20), or 6-AN pellets (150, 15, 1.5 mcg/60 days)(n=24) placed into the uterine horn after index delivery. Females were then mated and litter size was measured over the following 120 days post pellet. Mice were housed according to the Institutional Animal Care and use Committee and NIH guidelines. Day to first litter, number of litters, number of pups, average pups/litter were recorded. Serum DHEA levels were quantified (Alpco, Salem, N.H.). All pellets (placebo, DHEA, 6-AN) were custom-formulated (Innovative Research, Inc)."}, "ESC-T": {"system": "ESC-T", "assay": "Viability of ESC-T with GlcN (MTT assay and flow cytometry)", "assay_type": "cell-based, human", "settings": "0, 2.5 or 5 mM GlcN for 9 days", "experimental": "(§3) Human immortalized ESC (ESC telomerase immortalized, ESC-T), were decidualized in vitro in the presence of 0, 2.5 or 5 mM GlcN for 9 days. […] Thus, it was concluded that perturbation of the PPP activity by GlcN might lead to the failure of ESC decidualization and thus possibly be one of the first non-hormonal inhibitors of decidualization. Finally, in vivo evidence is provided that female mice with a time-release GlcN pellet (15-1500 μg) implanted in one uterine horn, delivered fewer live pups per litter over a 60-day period than those with control pellet implantation (8.25 vs 4.23 pups/litter; FIG. 25)."}, "G6PDH": {"biological_target": "T1, G6PDH (Homo sapiens, UniProt P11413)", "T1 construct": "endogenous in cells; host or cells: human telomerase-immortalized endometrial stromal cells (ESC-T)", "T1 sequence (P11413 whole entry)": "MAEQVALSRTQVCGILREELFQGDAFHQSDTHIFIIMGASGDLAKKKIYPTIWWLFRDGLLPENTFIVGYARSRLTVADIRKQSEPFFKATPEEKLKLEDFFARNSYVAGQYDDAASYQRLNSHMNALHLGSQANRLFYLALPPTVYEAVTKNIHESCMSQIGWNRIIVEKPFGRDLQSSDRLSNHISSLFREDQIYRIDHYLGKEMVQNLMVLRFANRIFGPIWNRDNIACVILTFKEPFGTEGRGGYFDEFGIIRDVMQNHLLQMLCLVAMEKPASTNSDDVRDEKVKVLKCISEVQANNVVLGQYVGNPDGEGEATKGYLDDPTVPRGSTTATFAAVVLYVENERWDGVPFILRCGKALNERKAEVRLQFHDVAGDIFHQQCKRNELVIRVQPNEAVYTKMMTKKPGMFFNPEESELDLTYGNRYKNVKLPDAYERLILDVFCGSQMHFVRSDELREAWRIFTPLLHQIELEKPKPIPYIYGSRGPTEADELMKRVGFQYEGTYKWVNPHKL", "assay": "G6PDH activity in decidualized ESC-T cells exposed to GlcN", "assay_type": "cell-based", "experimental": "as §3"}, "ICR female mice [4]": {"system": "ICR female mice", "assay": "Intrauterine time-release GlcN pellet and pups per litter", "assay_type": "in vivo, mouse", "settings": "time-release GlcN pellet (15-1500 μg) in one uterine horn; 60-day period", "experimental": "FIG. 25A-B graphically depicts decreased birth rate by glucosamine in ICR mice. 6 weeks old ICR female mice were implanted with a control or GlcN (15-1500 μg) pellet on one uterine horn and (A) with or (B) without the hysterectomy on the other uterine horn. Pups per litter in pellet implanted female mice crossed with males were recorded. **, P<0.01.\nas §3"}, "human ESCs": {"system": "human ESCs", "experimental": "as §1"}, "human immortalized ESCs": {"system": "human immortalized ESCs", "settings": "1 μM and 1.5 μM IA; 5-3H-glucose for four hours", "quoted_text": "In order to confirm inhibition of glycolysis, human immortalized ESCs were incubated in the presence of 5-^3H-glucose for four hours and the amount of ^3H2O production (H2O produced from the 5th hydrogen of glucose is a product of glycolysis) in ESCs exposed to different concentrations of IA was measured (FIG. 2b)."}, "[5]": {"settings": "decidualized cells with 2 μM or 5 μM 6-AN, 3 h"}}, "data": [{"smiles": "NC(=O)c1ccc(N)nc1", "note": "[6-AN, 6-aminonicotinamide]", "values": [{"measurement": "Expression of PRL and IGFBP", "setting": "ESC-T cells [1]; 10 μM 6AN, day 3 to day 9 in culture", "value": "inhibited"}, {"measurement": "Prp mRNA expression", "setting": "murine ESCs", "value": "decreased Prp expression"}, {"measurement": "Expression of PRL and IGFBP1", "setting": "human primary ESCs; 9 days in decidualization media", "value": "decreased"}, {"measurement": "Metabolism of glucose labeled at the C-1 position (14CO2)", "setting": "hESC-Ts; [5]", "value": "lower in the decidualized cells exposed to 6-AN in a concentration dependent manner"}, {"measurement": "Metabolism of the 6-C labeled glucose (14CO2)", "setting": "hESC-Ts; [5]", "value": "not affected"}, {"measurement": "Glycolytic flux of 5-3H labeled glucose", "setting": "hESC-Ts; decidualized cells with 5 μM 6-AN", "value": "returned almost to the same levels as the control"}, {"measurement": "Ratio of 1-C:6-C (relative preference of the PPP)", "setting": "hESC-Ts; presence of 6-AN", "value": "decreasing"}, {"measurement": "EdU-positive nuclei vs DMSO control", "setting": "ESC-T cells [2]; 100 μM DHEA, 50 μM 6AN", "value": "drastic decrease"}, {"measurement": "Proliferation by EdU geometric mean fluorescence intensity (flow cytometry)", "setting": "ESC-T cells [2]; 4 independent experiments", "value": "decreases proliferation of ESC-Ts in a concentration dependent manner"}, {"measurement": "Reduction in average pup/litter size", "setting": "ICR female mice [3]; 6-AN pellet, not significant from control (p=0.4)", "value": 37.7, "unit": "%"}, {"measurement": "Average time to first litter", "setting": "ICR female mice [3]; intrauterine pellet: DHEA 1.5 mg/60 days, 6-AN 150, 15, 1.5 mcg/60 days, controls 27 days", "value": 34, "unit": "days"}]}, {"smiles": "N[C@H]1C(O)O[C@H](CO)[C@@H](O)[C@@H]1O", "note": "(some centres unmarked) [GlcN, glucosamine]", "values": [{"measurement": "mRNA expression of prolactin, somatostatin, interleukin-15, left-right determination factor 2, tissue inhibitor of metalloproteinase 3", "setting": "ESC-T cells [1]; GlcN 2.5 or 5 mM, quantitative RT-PCR", "value": "significantly lower expression levels"}, {"measurement": "Expression levels of PRL and SMST over time", "setting": "ESC-T cells [1]; GlcN, day 3 through day 9", "value": "decreased the expression levels"}, {"measurement": "mRNA expression of prolactin, somatostatin, interleukin-15, left-right determination factor 2, tissue inhibitor of metalloproteinase 3", "setting": "human primary ESCs; GlcN, day 9 of culture", "value": "significantly lower expression levels"}, {"measurement": "Viability / proliferation", "setting": "ESC-T", "value": "viability similar to control cells"}, {"measurement": "G6PDH activity vs control cells", "setting": "G6PDH", "value": "significantly lower"}, {"measurement": "Live pups per litter", "setting": "ICR female mice [4]", "value": 4.23, "unit": "pups/litter"}]}, {"smiles": "O=C(O)CI", "note": "[IA, Iodoacetate]", "values": [{"measurement": "Decidualization assessed by Prl marker expression", "setting": "human ESCs; IA concentrations below the toxic threshold", "value": "not affected"}, {"measurement": "Concentration inducing cell death", "setting": "human ESCs; within 24 hr of administration", "value": "≥ 2000", "unit": "nM"}, {"measurement": "Reduction of flux of glucose through glycolysis", "setting": "human immortalized ESCs", "value": 40, "unit": "%"}]}]}
